Test results taken from patent US20250221950A1, “GABA-CONTAINING COMPOSITION” (priority 2021, published 2025).
Entries after “also recorded” stand apart in the source; their conditions may differ. Ends that are not written are not given here.

Legend:
[1] = test system: subdiaphragmatic vagotomized mice; assay: Food intake after intragastric GABA in subdiaphragmatic vagotomized mice (FIG. 1B); format: in vivo; details: GABA 200 mg/kg intragastric, afferent vagotomy
Description: (§1) In order to examine the involvement of the vagus nerve which is a visceral sensory nerve, the food intake reducing effect by intragastric administration of GABA was examined using sensory nerve disorder model mice by subcutaneous administration of capsaicin or subdiaphragmatic vagotomized mice. The sensory nerve disorder model mice by subcutaneous administration of capsaicin were prepared as follows. 50 mg/kg of capsaicin (5 ml/kg, solution composition: 10% ethanol, 10% Tween 80, 80% physiological saline) was subcutaneously administered to C57BL/6J male mice under tribromoethanol (200 mg/kg, intraperitoneal administration (ip)) anesthesia, and after 2 days, 50 mg/kg of capsaicin was subcutaneously administered under similar anesthesia. Further, after 2 days, 10 mg/kg of capsaicin was intraperitoneally administered under no anesthesia. After a recovery period of 5 to 7 days, an experiment of food intake was performed. In sham operation and subdiaphragmatic vagotomy, surgery was performed on C57BL/6J male mice under tribromoethanol (200 mg/kg, ip) anesthesia. […] All the mice were fasted overnight (16 hours) on the day before the experiment of food intake, then intragastrically administered a single dose of physiological saline or GABA (200 mg/kg) from 9:45, and fed at 10:00, and the food intake by free-feeding was measured over time. […]

[2] = test system: Healthy C57BL/6J male mice; assay: Food intake after sucrose with or without GABA (Example 10, FIG. 14); format: in vivo
Description: Thereafter, the mice were fed at 10:00 on the test day, and the food intake by free-feeding was measured over time.

[3] = test system: Healthy C57BL/6J male mice; assay: Food intake after GABA, enteral nutrient or both 30 minutes before feeding, healthy mice (Example 2, FIG. 2); format: in vivo
Description: Saline (40 ml/kg, po), GABA (200 mg/kg, po), EnsureH (40 ml/kg, po, 1.5 kcal/g) which is an enteral nutrient manufactured by Abbott Japan LLC, or EnsureH+GABA (GABA 200 mg/kg in Ensure, 40 ml/kg, po) were administered from 9:15. The mice were fed 30 minutes after administration, and freely fed. […] At 0.5 h or after, the cumulative food intake (kcal) of the forcibly administered solution and the feed taken was shown (FIG. 2).

human subjects = assay: Human test: VAS satiety and appetite, and calorie intake of a lunch box after GABA intake (Example 6); format: in vivo; details: GABA 100 mg before lunch box, versus placebo
Description: It was examined whether GABA administration also affects the food intake in humans. In 13 human subjects (25 to 43 years old, 5 males and 8 females), changes in the food intake in the presence or absence of GABA administration were confirmed in the following test outline. Specifically, each subject was fasted from 21:00 on the day before the test, and subjective evaluation (satiety, hunger, appetite) was performed by the VAS questionnaire at 12:00 on the test day. Thereafter, a sample (placebo group: dextrin, GABA group: GABA 100 mg) was taken in together with 50 mL of water, and immediately after that, diet (lunch box) was taken. Immediately after diet, at 30 minutes, 60 minutes, and 120 minutes after diet, subjective evaluation (satiety, hunger, appetite) was performed again by the VAS questionnaire, and the remaining amount of a lunch box was photographed to calculate intake kcal.

[4] = test system: Healthy C57BL/6J male mice; assay: Food intake after intragastric GABA just before feeding in fasted healthy mice (Example 1, FIG. 1A); format: in vivo; details: GABA solution 20 mg/kg or 200 mg/kg po just before feeding, compared with physiological saline
Description: As experimental animals, C57BL/6J male mice were used. The mice were acclimated to the environment by preliminary rearing for 1 week or more in individual cages in the free-eating and drinking environment at a temperature of 23±2° C., a humidity of 55±10%, a 12 hour light-dark cycle (light period: 7:30 to 19:30). The animal experiment was conducted with approval in accordance with the guidelines of the Committee for Animal Research of Kyoto Prefectural University. […] In each administration, the mice were intragastrically administered (po) a single dose of physiological saline as a control group and GABA (2 mg/kg, 20 mg/kg, 200 mg/kg) as a test group at a dose of 10 ml/kg using a sonde (stainless steel feeding needle). […] The amount of the feed taken is expressed as the cumulative food intake (kcal) or the food intake at each time (kcal) (FIG. 1A). The cumulative food intake (kcal) also includes energy of administered GABA (3.95 kcal/g).

vagal afferent nerves = assay: pERK1/2 immunostaining of nodose ganglion, nucleus tractus solitarius and area postrema (Example 4, FIG. 4, 5); format: in vivo, mice; details: 30 minutes
Description: C57BL/6J male mice were acclimated to the environment and experimental work by preliminary rearing and handling for 1 week or more in individual cages. […] They were post-fixed, and a frozen section specimen was prepared. Using this frozen section specimen, immunostaining of phosphorylated ERK1/2 (pERK1/2), which is a neural activation marker, was performed, and each organ section was photographed with a fluorescence microscope and analyzed.

GIP [5] = assay: Glucose-induced GIP secretion, portal plasma ELISA (Example 7, FIG. 10); format: in vivo, mice; details: GABA (2, 20, 200 mg/kg) with glucose 1 g/kg oral, 15 minutes
GLP-1 [6] = assay: Blood total GLP-1 concentration 30 minutes after intragastric administration (Example 5, FIG. 6); format: in vivo, mice
Description: (§2) Healthy C57BL/6J male mice were fasted for 16 hours from 18:00 the day before the experiment. At 10:00, various solutions shown in the figure were intragastrically administered (40 ml/kg). Thirty minutes after administration, blood was collected from the portal vein under isoflurane anesthesia. An anticoagulant (heparin (final concentration 50 IU/ml)) and a peptide degradation inhibitor (aprotinin (final concentration 500 KIU/ml) and vildagliptin (final concentration 10 μM)) were added in advance to the sampling syringe. The collected blood was cooled and centrifuged and stored at −80° C. until the obtained plasma was analyzed. The total GIP concentration (A) and the total GLP-1 concentration (B) in the blood were analyzed using ELISA kits (EZGLP1T-36K and EZRMGIP-55K) manufactured by Millipore Corporation.

GIP [7] = assay: Isomerized sugar-induced GIP secretion, portal plasma ELISA (Example 9, FIG. 13); details: GABA 60 mg/kg po with glucose+fructose 1 g/kg each
[8] = test system: sensory nerve disorder model mice by subcutaneous administration of capsaicin; assay: Food intake after intragastric GABA in capsaicin sensory nerve disorder model mice (FIG. 1B); format: in vivo; details: GABA 200 mg/kg intragastric, capsaicin treatment
Description: as §1

GIP [9] = assay: Blood total GIP concentration 30 minutes after intragastric administration (Example 5, FIG. 6); format: in vivo, mice
Description: as §2

GLP-1 [10] = assay: GLP-1 secretion after glucose with or without GABA, portal plasma ELISA (Example 7, FIG. 10); format: in vivo, mice; details: addition of GABA (2, 20, 200 mg/kg) to glucose 1 g/kg oral, 15 minutes
sham-operated mice = assay: Food intake after intragastric GABA in sham-operated mice (FIG. 1B); format: in vivo; details: GABA 200 mg/kg intragastric
Description: as §1

GLP-1 [11] = assay: Fructose-induced GLP-1 secretion, portal plasma ELISA (Example 9, FIG. 13); format: in vivo, mice
[12] = test system: Healthy C57BL/6J male mice; assay: Food intake after glucose, fructose, isomerized sugar with or without GABA (Example 8, FIG. 11, 12); format: in vivo; details: fructose 1 g/kg po alone, compared with control group (saline)
Description: Thereafter, the mice were fed at 10:00 on the test day, and the food intake by free-feeding was measured over time. […] The effect of GABA on the inhibitory action on fructose-induced satiety by glucose was examined. […] Thereafter, the mice were fed at 10:00 on the test day, and the food intake by free-feeding was measured over time.

C57BL/6J male mice = assay: Conditioned taste aversion test (saccharin preference, Example 3, FIG. 3); format: in vivo; details: lithium chloride 3 mmol/kg intraperitoneal
Description: C57BL/6J male mice reared in individual cages were given two bottles of water only for 2 hours from 10:00 to 12:00 for 5 days, whereby the mice were acclimated to the water restriction schedule. On day 6, a 0.15% saccharin solution was presented for 30 minutes, and thereafter, lithium chloride (3 mmol/kg) was intraperitoneally administered, whereby the mice were made to acquire an aversion to the taste of the saccharin solution (conditioning). In the same manner, a control group to which physiological saline (10 mL/kg) was intragastrically administered and a test group to which GABA (200 mg/kg) was intragastrically administered were prepared. On day 7 serving as a rest day, the above-described water restriction schedule was performed. On day 8 serving as a test day, two bottles of a 0.15% saccharin solution and water were simultaneously presented for 30 minutes, and the preference of the saccharin solution (saccharin intake/total intake of two bottles×100, %) was determined.

obese patients = details: Bergmann et al. 2019, cited from earlier work
[13] = test system: afferent nerves in the hepatic branch of the vagus nerve; details: administration into the hepatic portal vein; J Auton Nerv Syst. 1996; cited from earlier work
[14] = GABA addition to enteral nutrients, 30 minutes after administration
[15] = GABA alone, intragastric 40 ml/kg, 30 minutes after administration
[16] = addition of GABA to the liquid food (EnsureH), 30 minutes

## NCCCC(=O)O [GABA, γ-Aminobutyric acid]
[1]
  ability to induce the transient satiety or to suppress binge eating on a fasting condition (food intake): impaired
[2]; GABA 200 mg/kg po taken together with sucrose 2 g/kg po
  feeling of satiety: significantly induces
[3]; GABA 200 mg/kg po alone 30 minutes before eating, compared with physiological saline
  eating behavior after the start of eating: not different
[3]; GABA addition to enteral nutrients, 30 minutes before feeding
  satiety via vagal afferent nerves: enhances
[3]; administration of GABA 30 minutes before diet
  food intake reducing effect: greatly reduced
Human subjects; immediately after diet, 30 minutes and 60 minutes after diet
  feeling of satiety (VAS): significantly increased
Human subjects
  appetite after diet (VAS): significantly reduced; also recorded: suppressed
  calorie intake: significantly low value
  feeling of satiety, area under the curve (AUC): significant increase; also recorded: significantly increased
[4]; 16 h fasted
  fasting food intake within 1 hour from the start of diet after fasting: significantly reduced
  food intake within 2 hours from the start of diet after fasting: reduces
[4]
  food intake after 2 hours from the start of eating: not always changed
Vagal afferent nerves; GABA 200 mg/kg in EnsureH 40 ml/kg po, compared with EnsureH alone
  afferent vagal activation by nutrient (pERK1/2): significantly enhances
Vagal afferent nerves; GABA alone 200 mg/kg po, compared with physiological saline
  afferent vagal activity (neuron activities of vagal afferent nerves, nucleus tractus solitarius, area postrema; pERK1/2): does not affect
GIP [5]
  glucose-induced GIP secretion: suppresses
GLP-1 [6]; [14]
  GLP-1 secretion (blood GLP-1 increase by nutrient): increase; also recorded: promotes
GLP-1 [6]; [15]
  blood GLP-1 concentration: no change
GLP-1 [6]; [16]
  GLP-1 concentration relative to liquid food alone: approximately double
GIP [7]
  isomerized sugar-induced GIP secretion: suppresses
[8]
  ability to induce the transient satiety or to suppress binge eating on a fasting condition (food intake): impaired
GIP [9]; [14]
  GIP secretion (blood GIP increase by nutrient): suppress; also recorded: suppresses
GIP [9]; [15]
  blood GIP concentration: no change
GIP [9]; [16]
  GIP concentration relative to liquid food alone: about ⅓
GLP-1 [10]
  GLP-1 secretion: does not significantly enhance
sham-operated mice
  ability to induce the transient satiety or to suppress binge eating on a fasting condition (food intake): similarly observed
GLP-1 [11]; GABA 60 mg/kg po
  fructose-induced GLP-1 secretion: further enhances
GLP-1 [11]; further addition of GABA 60 mg/kg po to glucose+fructose 1 g/kg each
  GLP-1 secretion: enhanced

## O=C(CO)[C@@H](O)[C@H](O)[C@H](O)CO [fructose, reference compound]
[12]
  food intake: suppressed
GLP-1 [11]; fructose 1 g/kg po
  GLP-1 secretion: enhances

## [Cl-].[Li+] [lithium chloride]
C57BL/6J male mice
  aversion: induces aversion
C57BL/6J male mice; conditioning day 6, test day 8
  preference of saccharin: reduced

## OC[C@H]1O[C@@](CO)(O[C@H]2O[C@H](CO)[C@@H](O)[C@H](O)[C@H]2O)[C@@H](O)[C@@H]1O [sucrose, reference compound]
[2]; sucrose 2 g/kg po alone
  satiety inducing action (intake inhibitory action): not observed

## Glucose-dependent insulinotropic polypeptide [GIP]
Obese patients; GIP administered simultaneously with GLP-1
  effect of GLP-1 on energy intake: attenuated
[13]
  neural activity of afferent nerves in the hepatic branch of the vagus nerve: does not result in any change

## glucagon-like peptide-1 (HAEGTFTSDVSSYLEGQAAKEFIAWLVKGR; ends and bridges not checked; UniProt P01275 98-127, looked up) [GLP-1, incretin hormone produced in endocrine L cells]
Obese patients; GLP-1 intravenously to obese patients
  energy intake: reduced
[13]
  neural activity of afferent nerves in the hepatic branch of the vagus nerve: significant increase
